Experimental data reported in patent publication US20100119599A1 (ARCHER PHARMACEUTICALS, INC., priority 2006, published 2010).

Columns and labels:
Aβ1-40 = assay: Measurement of Aβ1-40 in culture medium of 7W WT APP751 CHO cells by ELISA; assay type: cell-based, Chinese hamster; conditions: for activity at 5 µM: Cricetulus griseus, Table 1, 5 μM test compound, CHO cells stably transfected with human APP751, culture medium, ELISA, control DMSO, 0 = no detectable amount; for Aβ1-40 (% of control): CHO cells that overexpress APP751, zero = below the detection limit of the assay
Aβ1-42 = assay: Measurement of Aβ1-42 in culture medium of 7W WT APP751 CHO cells by ELISA; assay type: cell-based, Chinese hamster; conditions: for activity at 5 µM: Cricetulus griseus, Table 1, 5 μM test compound, CHO cells stably transfected with human APP751, culture medium, ELISA, control DMSO, 0 = no detectable amount, read-out: Aβ1-42 (% of control); for Aβ1-42 (% of control): CHO cells that overexpress APP751, zero = below the detection limit of the assay
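Note: 5 µM test compound but RI-coded compounds at 10 µM for 24 hours.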

## C=CCOC(=O)C1=C(C)NC2=C(C(=O)CCC2)C1c1cccc(OC)c1 (stereo not drawn) [ST013199, prop-2-enyl 4-(3-methoxyphenyl)-2-methyl-5-oxo-1,4,6,7,8-pentahydroquinoline-3-carboxylate]
Aβ1-40
  activity at 5 µM: 68.5%
Aβ1-42
  activity at 5 µM: 86.7%

## CCCCOC(=O)C1=C(C)NC2=C(C(=O)CC(C)(C)C2)C1c1cccc2ccccc12 (stereo not drawn) [ST013208, butyl 2,7,7-tnmethyl-4-naphthyl-5-oxo-1,4,6,7,8-pentahydroquinoline-3-carboxylate]
Aβ1-40
  activity at 5 µM: 0%
Aβ1-42
  activity at 5 µM: 20.2%

## CC1=C(C(=O)OCCc2ccccc2)C(c2ccc(Cl)c(Cl)c2)C2=C(CCCC2=O)N1 (stereo not drawn) [ST015098, 2-phenylethyl 4-(3,4-dichlorophenyl)-2-methyl-5-oxo-1,4,6,7,8-pentahydroquinoline-3-carboxylate]
Aβ1-40
  activity at 5 µM: 40.9%
Aβ1-42
  activity at 5 µM: 0%

## CC1=C(C(=O)Nc2ccc(Cl)cc2)C(c2ccsc2)C(C#N)=C(SCC(=O)Nc2ccc(C)c(Cl)c2)N1 (stereo not drawn) [RI_37]
Aβ1-40
  Aβ1-40 (% of control): 64.4 % of control
Aβ1-42
  Aβ1-42 (% of control): 75.8 % of control

## CCCOc1ccccc1C1C(C(=O)OCC(C)C)=C(C)NC2=C1C(=O)CC(c1ccccc1)C2 (stereo not drawn) [ST016984, 2-methylpropyl 2-methyl-5-oxo-7-phenyl-4-(2-propoxyphenyl)-1,4,6,7,8-pentahydroquinoline-3-carboxylate]
Aβ1-40
  activity at 5 µM: 25.4%
Aβ1-42
  activity at 5 µM: 56.2%

## COc1ccc(COC(=O)C2=C(C)NC3=C(C(=O)CCC3)C2c2ccc(Br)cc2)cc1 (stereo not drawn) [ST018645, (4-methoxyphenyl)methyl 4-(4-bromophenyl)-2-methyl-5-oxo-1,4,6,7,8-pentahydroquinoline-3-carboxylate]
Aβ1-40
  activity at 5 µM: 7.03%
Aβ1-42
  activity at 5 µM: 18%

## CC1=C(C(=O)Nc2ccccc2)C(c2cccs2)C(C#N)=C(S)N1 (stereo not drawn) [RI_28]
Aβ1-40
  Aβ1-40 (% of control): 77.1 % of control
Aβ1-42
  Aβ1-42 (% of control): 68.5 % of control

## CC(=O)Oc1ccc(C2C(C(=O)OC(C)C)=C(C)NC3=C2C(=O)CCC3)cc1 (stereo not drawn) [ST013192, 4-{2-methyl-3-[(methylethyl)oxycarbonyl]-5-oxo-4-1,4,6,7,8-pentahydroquinolyl} phenyl acetate]
Aβ1-40
  activity at 5 µM: 55.5%
Aβ1-42
  activity at 5 µM: 82.5%

## CCc1ccc(C2C(C(=O)OCc3ccccc3)=C(C)NC3=C2C(=O)CC(c2ccccc2)C3)cc1 (stereo not drawn) [ST013390, phenylmethyl 4-(4-ethylphenyl)-2-methyl-5-oxo-7-phenyl-1,4,6,7,8-pentahydroquinoline-3-carboxylate]
Aβ1-40
  activity at 5 µM: 23.4%
Aβ1-42
  activity at 5 µM: 98.3%

## COC(=O)C1=C(C)NC2=C(C(=O)CCC2)C1c1ccc(OC)c(OC)c1OC (stereo not drawn) [ST013147, methyl 2-methyl-5-oxo-4-(2,3,4-trimethoxyphenyl)-1,4,6,7,8-pentahydroquinoline-3-carboxylate]
Aβ1-40
  activity at 5 µM: 72%
Aβ1-42
  activity at 5 µM: 45.4%

## COc1ccc(OC)c(C2C(C(=O)OCCc3ccccc3)=C(C)NC3=C2C(=O)CCC3)c1 (stereo not drawn) [ST052373, 2-phenylethyl 4-(2,5-dimethoxyphenyl)-2-methyl-5-oxo-1,4,6,7,8-pentahydroquinoline-3-carboxylate]
Aβ1-40
  activity at 5 µM: 39.4%
Aβ1-42
  activity at 5 µM: 37.4%

## CC1=C(C(=O)OCCc2ccccc2)C(c2cccc(Cl)c2)C2=C(CC(C)(C)CC2=O)N1 (stereo not drawn) [ST015084, 2-phenylethyl 4-(3-chlorophenyl)-2,7,7-trimethyl-5-oxo-1,4,6,7,8-pentahydroquinoline-3-carboxylate]
Aβ1-40
  activity at 5 µM: 59.5%
Aβ1-42
  activity at 5 µM: 80.2%

## COc1cc(Br)c(C2C(C#N)=C(C)NC3=C2C(=O)CC(c2ccc(Cl)cc2)C3)cc1OC (stereo not drawn) [ST017045, 4-(2-bromo-4,5-dimethoxyphenyl)-7-(4-chlorophenyl)-2-methyl-5-oxo-1,4,6,7,8-pentahydroquinoline-3-carbonitrile]
Aβ1-40
  activity at 5 µM: 42.6%
Aβ1-42
  activity at 5 µM: 46%

## CC1=C(C(=O)OC2CCCC2)C(c2cccs2)C2=C(CCCC2=O)N1 (stereo not drawn) [ST017171, cyclopentyl 2-methyl-5-oxo-4-(2-thienyl)-1,4,6,7,8-pentahydroquinoline-3-carboxylate]
Aβ1-40
  activity at 5 µM: 62.5%
Aβ1-42
  activity at 5 µM: 63.4%

## CCc1cccc(NC(=O)CSC2=C(C#N)C(c3ccc(-c4cccs4)s3)C(C(=O)Nc3ccccc3)=C(C)N2)c1 (stereo not drawn) [RI_90]
Aβ1-40
  Aβ1-40 (% of control): 63.9 % of control
Aβ1-42
  Aβ1-42 (% of control): 42.9 % of control

## COc1ccc(C2C(C(=O)OCCc3ccccc3)=C(C)NC3=C2C(=O)CC(C)(C)C3)c(OC)c1 (stereo not drawn) [ST015090, 2-phenylethyl 4-(2,4-dimethoxyphenyl)-2,7,7-trimethyl-5-oxo-1,4,6,7,8-pentahydroquinoline-3-carboxylate]
Aβ1-40
  activity at 5 µM: 15.4%
Aβ1-42
  activity at 5 µM: 34.9%

## CCc1cccc(NC(=O)CSC2=C(C#N)C(c3ccc(Cl)s3)C(C(=O)Nc3ccccc3)=C(C)N2)c1 (stereo not drawn) [RI_88]
Aβ1-40
  Aβ1-40 (% of control): 70.1 % of control
Aβ1-42
  Aβ1-42 (% of control): 54.6 % of control

## CC1=C(C(=O)Nc2ccccc2)C(c2cccs2)C(C#N)=C(SCC(=O)NC2CCCCC2)N1 (stereo not drawn) [RI_25]
Aβ1-40
  Aβ1-40 (% of control): 55.9 % of control
Aβ1-42
  Aβ1-42 (% of control): 36.5 % of control

## CC1=C(C(N)=O)C(c2ccccc2)C(C#N)=C(SCC(=O)Nc2cccc(C)c2)N1 (stereo not drawn) [RI_30]
Aβ1-40
  Aβ1-40 (% of control): 94.9 % of control
Aβ1-42
  Aβ1-42 (% of control): 48.2 % of control

## CC1=C(C(=O)Nc2ccccc2)C(c2cccs2)C(C#N)=C(SCC(=O)Nc2ccc(C)c(Cl)c2)N1 (stereo not drawn) [ST050842, N-(3-chloro-4-methylphenyl)-2-[3-cyano-6-methyl-5-(N-phenylcarbamoyl)-4-(2-thienyl)(2-1,4-dihydropyridylthio)]acetamide]
Aβ1-40
  Aβ1-40 (% of control): 37.46 % of control
Aβ1-42
  Aβ1-42 (% of control): 52.06 % of control

## COC(=O)C1=C(C)NC2=C(C(=O)CCC2)C1c1ccc(Cl)c([N+](=O)[O-])c1 (stereo not drawn) [ST052361, methyl 4-(4-chloro-3-nitrophenyl)-2-methyl-5-oxo-1,4,6,7,8-pentahydroquinoline-3-carboxylate]
Aβ1-40
  activity at 5 µM: 84.1%
Aβ1-42
  activity at 5 µM: 63.2%

## CCCOC(=O)C1=C(C)NC2=C(C(=O)CC(C)(C)C2)C1c1ccncc1 (stereo not drawn) [ST017249, propyl 2,7,7-trimethyl-5-oxo-4-(4-pyridyl)-1,4,6,7,8-pentahydroquinoline-3-carboxylate]
Aβ1-40
  activity at 5 µM: 67%
Aβ1-42
  activity at 5 µM: 75.1%

## CCOC(=O)C1=C(C)NC2=C(C(=O)CCC2)C1c1cc(Br)c(C)s1 (stereo not drawn) [ST020910, ethyl 4-(4-bromo-5-methyl(2-thienyl))-2-methyl-5-oxo-1,4,6,7,8-pentahydroquinoline-3-carboxylate]
Aβ1-40
  activity at 5 µM: 47.3%
Aβ1-42
  activity at 5 µM: 69.8%

## N#CC1=C(N)NC(SCC(N)=O)=C(C#N)C1c1ccccc1F (stereo not drawn) [RI_2]
Aβ1-40
  Aβ1-40 (% of control): 100.9 % of control
Aβ1-42
  Aβ1-42 (% of control): 44.4 % of control

## CCCOc1ccccc1C1C(C(=O)OCCOc2ccccc2)=C(C)NC2=C1C(=O)CC(C)(C)C2 (stereo not drawn) [ST015105, 2-phenoxyethyl 2,7,7-trimethyl-5-oxo-4-(2-propoxyphenyl)-1,4,6,7,8-pentahydroquinoline-3-carboxylate]
Aβ1-40
  activity at 5 µM: 53%
Aβ1-42
  activity at 5 µM: 99.8%

## CCSCCOC(=O)C1=C(C)NC2=C(C(=O)CC(C)(C)C2)C1c1cccc(C)c1 (stereo not drawn) [ST052457, 2-ethylthioethyl 2,7,7-trimethyl-4-(3-methylphenyl)-5-oxo-1,4,6,7,8-pentahydroquinoline-3-carboxylate]
Aβ1-40
  activity at 5 µM: 38.1%
Aβ1-42
  activity at 5 µM: 63.9%

## CCOC(=O)C1=C(C)NC2=C(C(=O)CCC2)C1c1ccc(O)c(OCC)c1 (stereo not drawn) [ST013158, ethyl 4-(3-ethoxy-4-hydroxyphenyl)-2-methyl-5-oxo-1,4,6,7,8-pentahydroquinoline-3-carboxylate]
Aβ1-40
  activity at 5 µM: 75%
Aβ1-42
  activity at 5 µM: 67.8%

## N#CC1=C(N)n2c(s/c(=C\c3cc(Br)ccc3O)c2=O)=C(C#N)C1c1cc(Br)ccc1O (stereo not drawn) [ST025030, 5-amino-7-(5-bromo-2-hydroxyphenyl)-2-[(5-bromo-2-hydroxyphenyl)methylene]-3-oxo-4,7-dihydro-1,3-thiazolidino[3,2-a]pyridine-6,8-dicarbonitrile]
Aβ1-40
  Aβ1-40 (% of control): 39.29 % of control
Aβ1-42
  Aβ1-42 (% of control): 33.93 % of control

## CCc1ccc(C2C(C(=O)OC3CCCCC3)=C(C)NC3=C2C(=O)CC(c2ccccc2)C3)cc1 (stereo not drawn) [ST013389, cyclohexyl 4-(4-ethylphenyl)-2-methyl-5-oxo-7-phenyl-1,4,6,7,8-pentahydroquinoline-3-carboxylate]
Aβ1-40
  activity at 5 µM: 37.4%
Aβ1-42
  activity at 5 µM: 94.4%

## CC1=C(C(=O)OCCOC(C)C)C(c2ccc([N+](=O)[O-])cc2)C2=C(CC(C)(C)CC2=O)N1 (stereo not drawn) [ST052272, 2-(methylethoxy)ethyl 2,7,7-trimethyl-4-(4-nitrophenyl)-5-oxo-1,4,6,7,8-pentahydroquinoline-3-carboxylate]
Aβ1-40
  activity at 5 µM: 65.8%
Aβ1-42
  activity at 5 µM: 29.2%

## CC1=C(C(=O)OC(C)C)C(c2cccc(O)c2)C2=C(CCCC2=O)N1 (stereo not drawn) [ST013174, methylethyl 4-(3-hydroxyphenyl)-2-methyl-5-oxo-1,4,6,7,8-pentahydroquinoline-3-carboxylate]
Aβ1-40
  activity at 5 µM: 34.3%
Aβ1-42
  activity at 5 µM: 73.1%

## CCOc1cc(/C=c2\sc3n(c2=O)C(N)=C(C#N)C(c2ccc(OCC(N)=O)c(OCC)c2)C=3C#N)ccc1OCC(N)=O (stereo not drawn) [ST025037, 2-[4-(5-amino-2-{[4-(carbamoylmethoxy)-3-ethoxyphenyl]methylene}-6,8-dicyano-3-oxo(4,7-dihydro-1,3-thiazolidino[3,2-a]pyridin-7-yl))-2-ethoxyphenoxy]acetamide]
Aβ1-40
  Aβ1-40 (% of control): 80.02 % of control
Aβ1-42
  Aβ1-42 (% of control): 67.1 % of control

## CCOC(=O)C1=C(C)NC(C)=C(C(=O)OCC)C1c1c(Cl)cccc1Cl [ST211423, ethyl 4-(2,6-dichlorophenyl)-5-(ethoxycarbonyl)-2,6-dimethyl-1,4-dihydropyridine-3-carboxylate]
Aβ1-40
  Aβ1-40 (% of control): 2.731 % of control
Aβ1-42
  Aβ1-42 (% of control): 0 % of control
